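A five-concentration, 48-hour dose response in 96-well plates underlies each endpoint, interpolated linearly between surrounding concentrations. GI50: concentration for 50% inhibition of growth.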 Calls of active or inactive are those of the source. Cut-off read from the data, not from the text of the source: active = GI50 up to about 1.1 µM and inactive = higher.
What was measured:
Assay in all cases: NCI tumour cell line growth inhibition, 48 h
CCRF-CEM = test system: CCRF-CEM
EKVX = test system: EKVX
A549 = test system: A549
SK-MEL-5 = test system: SK-MEL-5
MDA-MB-231 = test system: MDA-MB-231
Malme-3M = test system: Malme-3M
MCF7 = test system: MCF7
SR = test system: SR
HOP-62 = test system: HOP-62
M14 = test system: M14
SF-539 = test system: SF-539
HOP-92 = test system: HOP-92
NCI-H522 = test system: NCI-H522
DU-145 = test system: DU-145
SK-MEL-2 = test system: SK-MEL-2
NCI/ADR-RES = test system: NCI/ADR-RES
K562 = test system: K562
NCI-H226 = test system: NCI-H226
MOLT-4 = test system: MOLT-4
OVCAR-5 = test system: OVCAR-5
SNB-19 = test system: SNB-19
T47D = test system: T47D
COLO 205 = test system: COLO 205
TK-10 = test system: TK-10
HCT-116 = test system: HCT-116
HCC 2998 = test system: HCC 2998
OVCAR-8 = test system: OVCAR-8
NCI-H23 = test system: NCI-H23
SF-295 = test system: SF-295
IGROV-1 = test system: IGROV-1
PC-3 = test system: PC-3
SW-620 = test system: SW-620
OVCAR-4 = test system: OVCAR-4
RXF 393 = test system: RXF 393
SF-268 = test system: SF-268
HL-60 = test system: HL-60
A498 = test system: A498
BT-549 = test system: BT-549
CAKI-1 = test system: CAKI-1
UACC-257 = test system: UACC-257
KM12 = test system: KM12
MDA-MB-435 = test system: MDA-MB-435
MDA-N = test system: MDA-N
U-251 = test system: U-251
SN12C = test system: SN12C
UACC-62 = test system: UACC-62
HCT-15 = test system: HCT-15
LOX IMVI = test system: LOX IMVI
786-0 = test system: 786-0
HT-29 = test system: HT-29
RPMI-8226 = test system: RPMI-8226
OVCAR-3 = test system: OVCAR-3
Hs-578T = test system: Hs-578T
SK-OV-3 = test system: SK-OV-3
UO-31 = test system: UO-31
ACHN = test system: ACHN
SNB-75 = test system: SNB-75
NCI-H460 = test system: NCI-H460
SK-MEL-28 = test system: SK-MEL-28

## COc1ccc(-n2c(N)c(C#N)c(C#N)c2-c2ccco2)cc1
CCRF-CEM
  GI50: > 100 µM (inactive)
EKVX
  GI50: 5.01 µM (inactive)
A549
  GI50: > 100 µM (inactive)
SK-MEL-5
  GI50: 78.5 µM (inactive)
MDA-MB-231
  GI50: > 100 µM (inactive)
Malme-3M
  GI50: > 100 µM (inactive)
MCF7
  GI50: > 100 µM (inactive)
SR
  GI50: > 100 µM (inactive)
HOP-62
  GI50: 72.1 µM (inactive)
M14
  GI50: > 100 µM (inactive)
SF-539
  GI50: > 100 µM (inactive)
HOP-92
  GI50: 16.8 µM (inactive)
NCI-H522
  GI50: 46.7 µM (inactive)
DU-145
  GI50: > 100 µM (inactive)
SK-MEL-2
  GI50: > 100 µM (inactive)
NCI/ADR-RES
  GI50: > 100 µM (inactive)
K562
  GI50: 59.7 µM (inactive)
NCI-H226
  GI50: > 100 µM (inactive)
MOLT-4
  GI50: 46.7 µM (inactive)
OVCAR-5
  GI50: > 100 µM (inactive)
SNB-19
  GI50: > 100 µM (inactive)
T47D
  GI50: 47.9 µM (inactive)
COLO 205
  GI50: > 100 µM (inactive)
TK-10
  GI50: > 100 µM (inactive)
HCT-116
  GI50: > 100 µM (inactive)
HCC 2998
  GI50: > 100 µM (inactive)
OVCAR-8
  GI50: > 100 µM (inactive)
NCI-H23
  GI50: > 100 µM (inactive)
SF-295
  GI50: > 100 µM (inactive)
IGROV-1
  GI50: 75.2 µM (inactive)
PC-3
  GI50: 46.3 µM (inactive)
SW-620
  GI50: > 100 µM (inactive)
OVCAR-4
  GI50: 23.3 µM (inactive)
RXF 393
  GI50: > 100 µM (inactive)
SF-268
  GI50: > 100 µM (inactive)
HL-60
  GI50: > 100 µM (inactive)
A498
  GI50: > 100 µM (inactive)
BT-549
  GI50: 9.23 µM (inactive)
CAKI-1
  GI50: > 100 µM (inactive)
UACC-257
  GI50: > 100 µM (inactive)
KM12
  GI50: > 100 µM (inactive)
MDA-MB-435
  GI50: > 100 µM (inactive)
MDA-N
  GI50: 45.5 µM (inactive)
U-251
  GI50: > 100 µM (inactive)
SN12C
  GI50: > 100 µM (inactive)
UACC-62
  GI50: 38.5 µM (inactive)
HCT-15
  GI50: > 100 µM
LOX IMVI
  GI50: > 100 µM (inactive)
786-0
  GI50: > 100 µM (inactive)
HT-29
  GI50: > 100 µM (inactive)
RPMI-8226
  GI50: > 100 µM (inactive)
OVCAR-3
  GI50: > 100 µM (inactive)
Hs-578T
  GI50: 39.7 µM (inactive)
SK-OV-3
  GI50: > 100 µM (inactive)
UO-31
  GI50: 82.8 µM (inactive)
ACHN
  GI50: > 100 µM (inactive)
SNB-75
  GI50: 11.9 µM (inactive)

## CC(=N\N)/C(C)=N/N=C(C)/C(C)=N/N=C(C)/C(C)=N/N
CCRF-CEM
  GI50: > 100 µM (inactive)
EKVX
  GI50: > 100 µM (inactive)
A549
  GI50: > 100 µM (inactive)
SK-MEL-5
  GI50: > 100 µM (inactive)
MDA-MB-231
  GI50: > 100 µM (inactive)
Malme-3M
  GI50: > 100 µM (inactive)
MCF7
  GI50: > 100 µM (inactive)
SR
  GI50: > 100 µM (inactive)
HOP-62
  GI50: > 100 µM (inactive)
M14
  GI50: > 100 µM (inactive)
SF-539
  GI50: > 100 µM (inactive)
HOP-92
  GI50: > 100 µM (inactive)
NCI-H522
  GI50: > 100 µM (inactive)
DU-145
  GI50: > 100 µM (inactive)
SK-MEL-2
  GI50: > 100 µM (inactive)
NCI/ADR-RES
  GI50: > 100 µM (inactive)
K562
  GI50: > 100 µM (inactive)
NCI-H226
  GI50: > 100 µM (inactive)
MOLT-4
  GI50: 0.1 µM (active)
OVCAR-5
  GI50: > 100 µM (inactive)
SNB-19
  GI50: > 100 µM (inactive)
T47D
  GI50: > 100 µM (inactive)
COLO 205
  GI50: > 100 µM (inactive)
TK-10
  GI50: > 100 µM (inactive)
HCT-116
  GI50: > 100 µM (inactive)
NCI-H460
  GI50: > 100 µM (inactive)
HCC 2998
  GI50: > 100 µM (inactive)
OVCAR-8
  GI50: > 100 µM (inactive)
NCI-H23
  GI50: > 100 µM (inactive)
SF-295
  GI50: > 100 µM (inactive)
IGROV-1
  GI50: > 100 µM (inactive)
PC-3
  GI50: > 100 µM (inactive)
SW-620
  GI50: > 100 µM (inactive)
OVCAR-4
  GI50: > 100 µM (inactive)
RXF 393
  GI50: > 100 µM (inactive)
SF-268
  GI50: > 100 µM (inactive)
HL-60
  GI50: 28.5 µM (inactive)
A498
  GI50: > 100 µM (inactive)
BT-549
  GI50: > 100 µM (inactive)
CAKI-1
  GI50: > 100 µM (inactive)
UACC-257
  GI50: > 100 µM (inactive)
KM12
  GI50: > 100 µM (inactive)
MDA-MB-435
  GI50: > 100 µM (inactive)
MDA-N
  GI50: > 100 µM (inactive)
U-251
  GI50: > 100 µM (inactive)
SN12C
  GI50: > 100 µM (inactive)
SK-MEL-28
  GI50: > 100 µM (inactive)
HCT-15
  GI50: > 100 µM
LOX IMVI
  GI50: > 100 µM (inactive)
786-0
  GI50: > 100 µM (inactive)
HT-29
  GI50: > 100 µM (inactive)
RPMI-8226
  GI50: > 100 µM (inactive)
OVCAR-3
  GI50: > 100 µM (inactive)
Hs-578T
  GI50: > 100 µM (inactive)
SK-OV-3
  GI50: > 100 µM (inactive)
UO-31
  GI50: > 100 µM (inactive)
ACHN
  GI50: > 100 µM (inactive)
SNB-75
  GI50: > 100 µM (inactive)

From ChEMBL document CHEMBL1201862, “PubChem BioAssay data set” (2004)
